Among the test systems are 786-0; A549; ACHN; COLO 205; DU-145; HCT-116; KM12; MDA-MB-435; Malme-3M; NCI-H226; NCI-H23; OVCAR-3; RPMI-8226; SK-MEL-28; T47D; TK-10; UO-31.
Assay in all cases: NCI tumour cell line growth inhibition, 48 h

Structures are written as SMILES.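 Where inhibition never reached the appropriate level, the endpoint shown equals the highest concentration tested. Otherwise, values were interpolated linearly from a five-concentration, 48-hour dose response in 96-well plates. GI50 = concentration required for 50% inhibition of growth.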 The source made the active and inactive calls. Rule as the data show it: active = GI50 up to about 1.1 µM and inactive = higher.

With `COc1cccc(N(CN2CC=CC2=O)C(C)=O)c1`, the GI50 with 786-0, in the assay with A549, with ACHN, in the assay with COLO 205, in the assay with DU-145 and with HCT-116 was > 100 µM (inactive) throughout. Also, the GI50 in the assay on KM12, in the assay with MDA-MB-435, in the assay with Malme-3M, with NCI-H226, with NCI-H23 and with OVCAR-3 was > 100 µM (inactive) each time. Also, the GI50 with RPMI-8226, in the assay on SK-MEL-28, with T47D, in the assay on TK-10 and with UO-31 was > 100 µM (inactive) each time.

On to `OCCN(CCO)c1ccc2c(c1)Cc1ccccc1-2`, for which the GI50 in the assay with 786-0 is > 100 µM (inactive); with A549, 37.8 µM (inactive); in the assay on ACHN, 32.1 µM (inactive); in the assay with COLO 205 it was 18.4 µM (inactive); in the assay with DU-145, 17.7 µM (inactive); with HCT-116, 21 µM (inactive). Also, the GI50 is 38.3 µM (inactive) in the assay with KM12; 51.6 µM (inactive) in the assay with MDA-MB-435; 60.7 µM (inactive) in the assay with Malme-3M; 44.4 µM (inactive) in the assay with NCI-H226; 51.4 µM (inactive) with NCI-H23; 17 µM (inactive) with OVCAR-3. The GI50 in the assay on RPMI-8226 was 44.8 µM (inactive); in the assay on SK-MEL-28, 64.3 µM (inactive); with T47D it was 13.5 µM (inactive); with TK-10 it was 22.1 µM (inactive); in the assay on UO-31, 31.9 µM (inactive).

`CC(=NNC(=S)Nc1cccc(C)c1)c1cccc(C(C)=NNC(=S)Nc2cccc(C)c2)n1`: the GI50 in the assay with 786-0 is 8.18 µM (inactive); with A549, 18.7 µM (inactive); with ACHN, 7.24 µM (inactive); with COLO 205, 8 µM (inactive); in the assay with DU-145, > 100 µM (inactive); with HCT-116, 12.2 µM (inactive). Besides, the GI50 with KM12 is 0.851 µM (active); with MDA-MB-435, 22.4 µM (inactive); in the assay with Malme-3M, 14.9 µM (inactive); in the assay with NCI-H226, 18.6 µM (inactive); in the assay on NCI-H23 it was 27.4 µM (inactive); with OVCAR-3, 3.39 µM (inactive). For the same compound, the GI50 in the assay with RPMI-8226 is > 100 µM (inactive); with SK-MEL-28, > 100 µM (inactive); with T47D, 30.8 µM (inactive); in the assay on TK-10, 20.3 µM (inactive); in the assay on UO-31, 16 µM (inactive).

Regarding `COc1cc2c(c(OC)c1OC)C(=O)[C@@H]1[C@H]2N1C(N)=O`, the GI50 in the assay on 786-0 was > 100 µM (inactive); with A549, > 100 µM (inactive); in the assay on ACHN it was 61.1 µM (inactive); in the assay with COLO 205, 91.2 µM (inactive); with DU-145 it was 61.4 µM (inactive); in the assay with HCT-116, > 100 µM (inactive). Besides, the GI50 in the assay with KM12 is > 100 µM (inactive); in the assay on MDA-MB-435, > 100 µM (inactive); in the assay on Malme-3M it was > 100 µM (inactive); in the assay with NCI-H226 it was > 100 µM (inactive); in the assay with NCI-H23, 69.2 µM (inactive); with OVCAR-3, > 100 µM (inactive). Also, the GI50 with RPMI-8226, in the assay with SK-MEL-28, with T47D, in the assay with TK-10 and with UO-31 was > 100 µM (inactive) each time.
